From patent publication US20250066769A1, “METHODS OF SCREENING AND TREATING FRAGILE X SYNDROME” (YISSUM RESEARCH DEVELOPMENT COMPANY OF THE HEBREW …, priority 2021, published 2025)

Columns and labels:
[1] = test system: FMR1 expression in FXS-iPSCs; experiment: RT-PCR analysis of FMR1 expression in FXS-iPSCs; assay type: cell-based, human; settings: for FMR1 transcription levels (RT-PCR): lentiviral Cas9 and two sgRNAs per candidate gene, vs basal level
Description: Cell lines: Throughout the study the following cell lines were used: The FXS-iPSCs cell line A52. Haploid hpESCs-hPES10. CSES7 and CSES9 hESCs and their derivatives were used as a reference for wild type expression. 293T cells were used for the construction of lentiviral constructs.
RNA isolation and reverse transcription: Total RNA was isolated using NucleoSpin RNA Plus kit (Macherey-Nagel) and reverse transcribed using the qScript® cDNA Synthesis Kit. Quantitative real time PCR (qRT-PCR) was performed using SYBR Green qPCR Supermix (Applied Biosystems) and analyzed with the 7300 real-time PCR system (Applied biosystems). FMR1 expression was assessed using specific primers, which amplified a 147 bp product spanning exons 5-6 of FMR1. GAPDH was used for normalization.
DNMT1 disruption assay: As human pluripotent stem cells require DNA methylation for their viability, heterogenous DNMT1-mutant populations of FXS-iPSCs were generated by infecting the cells with a lentiCRISPR v2 lentiviral vector containing an sgRNA that targets the open reading frame of DNMT1. The sgRNA sequence was cloned into the lentiCRISPR v2 plasmid and transformed into Stb13 chemically competent bacteria. Following plasmid isolation, 293T cells were transfected with sgRNA-containing lentiCRISPR V2, psPAX2, and pCMV-VSV-G plasmids at a ratio of 13.3:10:6.6, respectively, in the presence of polyethylenimine ‘Max’ (Polysciences). Lentiviral particle-containing supernatant was collected ˜65 hours after transfection and filtered using […] filters. For transduction, FXS-iPSCs were trypsinized, centrifuged, and suspended in embryonic stem cell media supplemented with 10 μM ROCK inhibitor (Y27632) and 8 μg/ml polybrene (Sigma). The viruses were added to the cell suspension, and the cells were plated on MEFs overnight. After ˜36 hours, the cells' medium was replaced with puromycin-containing medium ([…], Sigma). After 2-14 days selection with puromycin, cells were harvested for RNA extraction. To confirm DNMT1 mutagenesis in the transduced cells, qRT-PCR primers that were designed to have their 3′ ends around the Cas9 cut-site of DNMT1 were used to analyze the abundance of wild-type copies to DNMT1 transcripts.
Generation of gene knockouts: Ten candidate genes were targeted using a lentiviral construct containing Cas9 and a specific sgRNA (Table 2). Two sgRNAs were used to target each candidate gene. Each sgRNA sequence was inserted into a separate lentiCRISPR v2 vector (Addgene cat. No. 52961). As a control, a lentiCRISPR v2 vector without any sgRNA (empty vector) was used. Lentiviruses were produced using 293T cells cultured in 10 cm plates using transfection with the sgRNA-containing-lentiCRISPR v2 construct, psPAX2 (Addgene cat. No. 12260) and pCMV-VSV-G (Addgene cat. No. 8454) at a ratio of 5.32:4:2.64 ratio, in the presence of polyethylenimine “Max” (PEI-Max) (Polysciences) at a 1:2 ratio of DNA to PEI-Max. After 24 hours, the medium was exchanged with standard hESC medium, which was harvested 60-65 hours following transfection, centrifuged, and filtered through 0.45 μm cellulose acetate filters (Millipore). The filtered supernatant was frozen in aliquots at −70° C. For transduction, FXS-iPSCs or haploid human ESCs were trypsinized with TrypLE™ Select, centrifuged, and resuspended in hESC medium supplemented with 8 μg ml-1 polybrene (Sigma) and 10 μM ROCK inhibitor (Y27632). Thawed or fresh viruses were added to the cell suspension, followed by plating the cells on feeder layer MEFs. […]

[2] = test system: methylated pFMR1-(240) CGG-EGFP construct in haploid hESCs; experiment: methylated pFMR1-(240) CGG-EGFP reporter transfection in mutant haploid hESCs, flow cytometry; assay type: cell-based, human; settings: Cas9 + two sgRNAs per gene, compared to Cas9 without sgRNA
Method: In vitro DNA methylation: pFMR1-n (CGG)-eGFP construct was methylated using an M.SssI CpG methyltransferase (NEB) according to manufacturer's recommendations. SAM concentration was adjusted to 640 μM. DNA was extracted using ethanol precipitation.
Library transfection: 10 μM ROCK inhibitor (Y27632) was added 1 hour prior to trypsinization and transfection. Library cells were harvested using TrypLE™ Select Enzyme solution (Thermo Fisher Scientific, Cat #12563029) in a single cell state. Following the first centrifugation, cells were re-suspended twice with DMEM/F12 and centrifuged again before incubation with the plasmid DNA. Transfection of the methylated pFMR1-CGG (240)-EGFP construct was performed using the Xtreme Gene9 reagent (Roche), using standard conditions. 48 hours following transfection, cells were washed with PBS, harvested using TrypLE™ Select, resuspended in PBS supplemented with 15% fetal bovine serum (FBS) and filtered through a 70-μm cell strainer (Corning) and sorted using BD FACDAria III. Transfection efficiency was assessed using the simultaneous transfection of control haploid hESCs with an unmethylated pFMR1-CGG (240)-EGFP construct.
Generation of gene knockouts: Ten candidate genes were targeted using a lentiviral construct containing Cas9 and a specific sgRNA (Table 2). Two sgRNAs were used to target each candidate gene. Each sgRNA sequence was inserted into a separate lentiCRISPR v2 vector (Addgene cat. No. 52961). As a control, a lentiCRISPR v2 vector without any sgRNA (empty vector) was used. Lentiviruses were produced using 293T cells cultured in 10 cm plates using transfection with the sgRNA-containing-lentiCRISPR v2 construct, psPAX2 (Addgene cat. No. 12260) and pCMV-VSV-G (Addgene cat. No. 8454) at a ratio of 5.32:4:2.64 ratio, in the presence of polyethylenimine “Max” (PEI-Max) (Polysciences) at a 1:2 ratio of DNA to PEI-Max. After 24 hours, the medium was exchanged with standard hESC medium, which was harvested 60-65 hours following transfection, centrifuged, and filtered through 0.45 μm cellulose acetate filters (Millipore). […]

Substance | FMR1 expression (RT-PCR) ([1]; 5 μM, 4 days) | FMR1 transcription levels (RT-PCR) [1] | methylated construct expression (relative GFP fluorescence) [2] | FMR1 expression (RT-PCR) ([1]; lentiviral sgRNA + Cas9, collected 7-14 days after start of selection, vs control FXS-iPSCs)
5′-aza-2′-deoxycytidine [5-azadC, reference compound] | reactivation of FMR1 expression |  |  | 
ZNF217: lentiviral Cas9 constructs with two sgRNAs targeting ZNF217 (guide 1 GTGGTGAACGGATCGAGCTG; guide 2 TCTGGATGAAAATGGAGCCG; expressed or natural sequence; listed as Homo sapiens) |  | some increase above basal FMR1 transcription levels | highest levels of methylated construct expression | 
sgRNA targeting DNMT1: lentiCRISPR v2 vector with Cas9 and sgRNA GAGGCCAGAAGGAGGAACCG targeting DNMT1 (listed as Homo sapiens) |  |  |  | reactivation of FMR1 expression
C6orf57: lentiviral Cas9 constructs with two sgRNAs targeting C6orf57 (guide 1 GAGACCCAGCTAAGCAACCA; guide 2 TCCCAATCTCCATATCGGGT; expressed or natural sequence; listed as Homo sapiens) |  | some increase above basal FMR1 transcription levels | highest levels of methylated construct expression | 
SMARCD1: lentiviral Cas9 constructs with two sgRNAs targeting SMARCD1 (guide 1 GGAGCCGGGCCCATTCGCAC; guide 2 GCCACTACCCAGGAGACCGA; expressed or natural sequence; listed as Homo sapiens) |  | some increase above basal FMR1 transcription levels | highest levels of methylated construct expression | 
